Assay results taken from BindingDB's records for patent US20240109917 (Actelion Pharmaceuticals, 2024).
pIC50: −log10 of the molar value.

Legend:
[1] = target: Vascular endothelial growth factor receptor 2 (Homo sapiens, UniProt P35968); assay: VEGFR ADP GLO Assay
Protocol: Assay Procedure:Step 1. Dispensing inhibitors/controls: Using Echo, dispense 10 nL/well compound serial dilutions in DMSO to columns 1-22 (in 384-well plates) or columns 1-44 (in 1536-well plates). Dilution series=11 pt, 3-fold dilutions. The top compound concentration in the source plate is 4 mM. The top compound concentration in the assay plate is 10 uM. Using Echo, dispense 10 nl/well DMSO to column 23 (in 384-well plates) or columns 45-47 (in 1536-well plates). These wells will serve as negative control wells Using Echo, dispense 10 nl/well 400 uM TAK-593 in DMSO to column 24 (in 384-well plates) or column 48 (in 1536-well plates). The final concentration of TAK-593 in the assay should be 1 uM. These wells will serve as positive control wells.Step 2. Pre-incubation of inhibitors with kinase: Add 2 μL/well 2× kinase solution. Centrifuge at 1000 rpm for 1 min. Incubate at room temperature for 30 min.Step 3. Kinase cascade reaction: Add 2 μL/well 2× substrate/ATP solution to initiate kinase reactions. Centrifuge at 1000 rpm for 1 min. Incubate at room temperature for 180 min.Final concentrations of components in the assay:[VEGFR2]=5 nM;[ATP]=1.2 mM;[Srctide]=1 mg/mL;[DMSO] G; 1%.Step 4. Quench: Add 2 uL/well ADP Glo Reagent+0.05% CHAPS. […] Centrifuge at 1000 rpm for 1 min; Incubate at room temperature for 1 hour; Read Luminescence on a plate reader.

[2] = target: Platelet-derived growth factor receptor beta (Homo sapiens, UniProt P09619); assay: PDGFRβ HTRF Assay
Chain of Platelet-derived growth factor receptor beta (P09619 whole entry): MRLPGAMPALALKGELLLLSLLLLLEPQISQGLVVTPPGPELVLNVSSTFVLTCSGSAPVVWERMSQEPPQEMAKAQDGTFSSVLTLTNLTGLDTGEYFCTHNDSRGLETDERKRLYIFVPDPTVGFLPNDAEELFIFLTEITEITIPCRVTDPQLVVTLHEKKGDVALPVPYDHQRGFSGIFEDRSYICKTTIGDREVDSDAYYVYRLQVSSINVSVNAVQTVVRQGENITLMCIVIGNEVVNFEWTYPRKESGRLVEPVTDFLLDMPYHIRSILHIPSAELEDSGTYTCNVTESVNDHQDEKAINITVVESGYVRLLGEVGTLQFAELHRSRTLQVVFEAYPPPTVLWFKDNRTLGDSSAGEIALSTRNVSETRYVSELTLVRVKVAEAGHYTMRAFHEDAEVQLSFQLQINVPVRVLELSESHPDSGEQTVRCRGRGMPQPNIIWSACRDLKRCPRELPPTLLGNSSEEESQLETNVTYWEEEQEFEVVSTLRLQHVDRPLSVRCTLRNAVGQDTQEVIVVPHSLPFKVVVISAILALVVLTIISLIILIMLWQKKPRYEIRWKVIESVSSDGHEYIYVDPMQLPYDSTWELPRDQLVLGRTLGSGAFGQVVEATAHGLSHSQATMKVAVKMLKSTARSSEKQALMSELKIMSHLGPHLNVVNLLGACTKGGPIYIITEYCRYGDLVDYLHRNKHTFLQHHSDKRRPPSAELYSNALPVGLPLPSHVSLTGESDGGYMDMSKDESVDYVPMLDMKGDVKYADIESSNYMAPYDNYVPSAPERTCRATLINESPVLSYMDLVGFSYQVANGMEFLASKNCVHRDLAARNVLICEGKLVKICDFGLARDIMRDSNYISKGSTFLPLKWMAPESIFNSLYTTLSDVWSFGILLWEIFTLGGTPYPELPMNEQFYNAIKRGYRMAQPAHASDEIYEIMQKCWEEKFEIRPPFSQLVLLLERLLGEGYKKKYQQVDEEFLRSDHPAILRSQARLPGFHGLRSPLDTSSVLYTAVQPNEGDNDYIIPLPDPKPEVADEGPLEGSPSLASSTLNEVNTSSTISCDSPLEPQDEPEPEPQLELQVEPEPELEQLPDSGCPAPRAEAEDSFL
Protocol: Stock Solutions:Assay buffer stock solution, contains 50 mM Hepes, 10 mM MgCl2, 1 mM EGTA, and 0.01% Brij-35, 0.01% ovalbumin, 2 mM DTT at pH 7.5, in molecular biology grade water. […] Store at −80° C. in aliquots.TK-biotin peptide, 0.5 μM in molecular biology grade water, store at −20° C. in aliquots.ATP, 100 mM in molecular biology grade water, store at −20° C. in aliquots.HTRF KinEASE-TK kit: Allow the contents of the Cisbio kit to warm up to room temperature before use. This kit contains HTRF detection buffer, TK-Antibody labeled with Eu3+-cryptate, TK-substrate biotin and Streptavidin-XL665.TK Substrate-Biotin, reconstitute 500 μg lyopholized with 574 μL molecular biology grade water to prepare a 500 μM stock; After use, aliquot the rest and store at −20° C.TK Antibody-Cryptate, reconstitute lyophilized with 1 mL of molecular biology grade water (100× solution) then add 99 mL detection buffer to prepare a ready to use TK-antibody-cryptate solution; the concentration of the TK-antibody-cryptate reagent is not known.

Chain of Vascular endothelial growth factor receptor 2 (P35968 whole entry): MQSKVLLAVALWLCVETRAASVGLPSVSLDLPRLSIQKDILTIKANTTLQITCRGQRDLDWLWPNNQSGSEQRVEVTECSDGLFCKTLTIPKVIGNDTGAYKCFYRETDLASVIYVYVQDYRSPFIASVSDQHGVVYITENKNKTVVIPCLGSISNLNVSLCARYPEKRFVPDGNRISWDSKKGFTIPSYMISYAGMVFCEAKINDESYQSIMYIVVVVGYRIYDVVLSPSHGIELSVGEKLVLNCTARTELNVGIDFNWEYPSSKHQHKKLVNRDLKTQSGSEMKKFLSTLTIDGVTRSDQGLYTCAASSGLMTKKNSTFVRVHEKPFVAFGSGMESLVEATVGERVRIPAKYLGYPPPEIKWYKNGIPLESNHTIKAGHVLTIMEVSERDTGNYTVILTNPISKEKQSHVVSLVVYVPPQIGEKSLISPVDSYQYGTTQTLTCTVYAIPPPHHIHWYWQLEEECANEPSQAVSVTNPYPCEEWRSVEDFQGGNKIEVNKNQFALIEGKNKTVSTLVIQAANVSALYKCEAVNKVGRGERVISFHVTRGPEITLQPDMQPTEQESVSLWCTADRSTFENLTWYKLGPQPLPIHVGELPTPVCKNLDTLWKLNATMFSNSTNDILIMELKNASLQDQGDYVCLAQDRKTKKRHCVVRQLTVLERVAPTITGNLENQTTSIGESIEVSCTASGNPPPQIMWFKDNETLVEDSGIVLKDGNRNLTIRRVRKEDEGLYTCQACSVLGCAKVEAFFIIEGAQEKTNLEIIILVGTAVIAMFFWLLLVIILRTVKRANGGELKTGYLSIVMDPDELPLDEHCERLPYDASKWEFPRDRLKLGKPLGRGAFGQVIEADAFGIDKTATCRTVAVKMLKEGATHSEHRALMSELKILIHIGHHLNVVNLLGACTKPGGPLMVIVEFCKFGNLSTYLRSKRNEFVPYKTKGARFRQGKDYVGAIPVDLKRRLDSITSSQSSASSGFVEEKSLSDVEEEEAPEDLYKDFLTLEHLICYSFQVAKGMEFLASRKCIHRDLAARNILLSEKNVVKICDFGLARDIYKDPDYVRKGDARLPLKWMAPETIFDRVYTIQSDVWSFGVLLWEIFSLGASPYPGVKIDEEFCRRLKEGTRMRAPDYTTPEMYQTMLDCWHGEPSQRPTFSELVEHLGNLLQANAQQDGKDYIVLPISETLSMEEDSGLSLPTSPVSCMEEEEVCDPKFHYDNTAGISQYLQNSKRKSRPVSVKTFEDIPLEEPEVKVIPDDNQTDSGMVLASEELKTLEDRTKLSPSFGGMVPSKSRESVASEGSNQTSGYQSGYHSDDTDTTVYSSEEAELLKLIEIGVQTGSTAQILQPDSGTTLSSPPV

CCOC1CN(CC(=O)Nc2cnc(C)c(NC(=O)c3cnn4cc(-c5cccnc5OC)sc34)c2)C1 [US20240109917, Example 401]
pIC50 [1]: < 5.12 | pIC50 [2]: 9.52
